The supplement of paper PMC10307832

Experiments:
Assay in all cases: relative viability (nuclei count vs DMSO), 5 days (fraction); higher = more cells survive
[1] = compound: C1=CC=C(C(=C1)C2=CC=C(C=C2)C3=CSC4=C3C(=C(C(=O)N4)C#N)O)O + N=C(N)NC(=N)NCCc1ccccc1 [Phenformin] (partner 250 µM)
Outline: (§1)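 Five library-drug doses in √10 steps were combined with a fixed anchor-drug dose, or a single drug was given alone, by pin tool to lung cancer cell lines in 1536-well plates the day after seeding. Nuclei were stained and counted after 5 days. Relative viability is the nuclei count in treated wells over that in vehicle wells, taken as the median of duplicate plates.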

[2] = compound: C1=CC=C(C(=C1)C2=CC=C(C=C2)C3=CSC4=C3C(=C(C(=O)N4)C#N)O)O + Nc1ncn([C@H]2C[C@H](O)[C@@H](CO)O2)c(=O)n1 [Decitabine] (partner 2 µM)
Outline: as §1

TGX 221 + Alpelisib = compound: CC1=CN2C(=O)C=C(N=C2C(=C1)C(C)NC3=CC=CC=C3)N4CCOCC4 [TGX 221] + Cc1nc(NC(=O)N2CCC[C@H]2C(N)=O)sc1-c1ccnc(C(C)(C)C(F)(F)F)c1 [Alpelisib] (partner 2 µM)
Outline: as §1

Ricolinostat + Lapatinib = compound: O=C(CCCCCCNC(=O)c1cnc(N(c2ccccc2)c2ccccc2)nc1)NO [Ricolinostat] + CS(=O)(=O)CCNCc1ccc(-c2ccc3ncnc(Nc4ccc(OCc5cccc(F)c5)c(Cl)c4)c3c2)o1 [Lapatinib] (partner 2 µM)
Outline: as §1

| Cell Line | relative viability ([1]; first compound 0.08 µM) | relative viability ([1]; first compound 0.253 µM) | relative viability ([1]; first compound 0.8 µM) | relative viability ([1]; first compound 2.53 µM) | relative viability ([1]; first compound 8 µM) | relative viability ([2]; first compound 0.08 µM) | relative viability ([2]; first compound 0.253 µM) | relative viability ([2]; first compound 0.8 µM) | relative viability ([2]; first compound 2.53 µM) | relative viability ([2]; first compound 8 µM) | relative viability (TGX 221 + Alpelisib; first compound 0.253 µM) | relative viability (TGX 221 + Alpelisib; first compound 0.8 µM) | relative viability (TGX 221 + Alpelisib; first compound 2.53 µM) | relative viability (TGX 221 + Alpelisib; first compound 8 µM) | relative viability (Ricolinostat + Lapatinib; first compound 0.08 µM) | relative viability (Ricolinostat + Lapatinib; first compound 0.253 µM) | relative viability (Ricolinostat + Lapatinib; first compound 0.8 µM) | relative viability (Ricolinostat + Lapatinib; first compound 2.53 µM) | relative viability (TGX 221 + Alpelisib; first compound 0.08 µM) |
| --- | --- | --- | --- | --- | --- | --- | --- | --- | --- | --- | --- | --- | --- | --- | --- | --- | --- | --- | --- |
| 201T | 0.335 | 0.451 | 0.46 | 0.462 | 0.434 | 0.844 | 0.826 | 0.875 | 0.894 | 0.916 | 0.942 | 0.943 | 0.872 | 0.827 | 0.921 | 1.01 | 0.95 | 1.07 |  |
| A549 | 0.124 | 0.184 | 0.123 | 0.192 | 0.238 |  | 0.315 | 0.207 | 0.306 | 0.211 | 0.52 | 0.542 | 0.377 | 0.28 | 0.977 | 0.887 | 0.859 | 0.72 | 0.63 |
| A-427 | 0.234 | 0.313 | 0.315 | 0.328 | 0.31 | 0.517 | 0.595 | 0.567 | 0.563 | 0.656 | 1.11 | 1.14 | 0.976 | 1.08 | 0.892 | 1.01 | 0.897 | 1.02 | 1.04 |
| ABC-1 | 0.241 | 0.274 | 0.241 | 0.259 | 0.239 | 1.4 | 1.03 | 1.03 | 0.899 | 1.07 | 0.858 | 0.996 | 0.99 | 0.838 | 1.27 | 1.12 | 1.3 | 1.65 | 1.03 |
| BEN | 0.282 | 0.289 | 0.265 | 0.278 | 0.274 | 0.605 | 0.745 | 0.771 | 0.717 | 0.653 | 0.942 | 0.899 | 0.899 | 0.88 | 0.613 | 0.643 | 0.588 | 0.423 | 0.982 |
| CAL-12T | 0.566 | 0.668 | 0.593 | 0.575 | 0.547 |  |  |  |  |  | 1.1 | 1.21 | 0.852 | 0.64 | 0.326 | 0.751 | 0.628 | 0.668 | 1.17 |
| COR-L23 | 0.383 | 0.467 | 0.464 | 0.467 | 0.372 | 0.469 | 0.54 | 0.429 | 0.431 | 0.417 | 0.659 | 0.759 | 0.722 | 0.742 | 1.05 | 0.835 | 0.8 | 0.588 | 0.807 |
| COR-L 105 | 0.47 | 0.649 | 0.348 | 0.401 | 0.402 | 0.715 | 0.684 | 0.793 | 0.664 | 0.564 | 0.838 | 0.697 | 0.609 | 0.361 | 0.342 | 0.396 | 0.399 | 0.384 | 1.02 |
| Calu-6 |  |  |  |  |  |  |  |  |  |  | 0.8 | 0.948 | 0.917 | 0.883 | 0.926 | 1.03 | 1.01 | 0.785 | 0.986 |
| ChaGo-K-1 | 0.448 | 0.523 | 0.519 | 0.483 | 0.407 | 0.507 | 0.58 | 0.587 | 0.535 | 0.506 |  |  |  |  |  |  |  |  |  |
| EBC-1 |  |  |  |  |  |  |  |  |  |  | 0.526 | 0.426 | 0.321 | 0.32 | 0.206 | 0.207 | 0.221 | 0.215 | 0.738 |
| EKVX | 0.226 | 0.259 | 0.233 | 0.221 | 0.216 | 0.396 | 0.412 | 0.857 | 0.695 | 0.326 | 0.716 | 0.648 | 0.5 | 0.477 |  | 0.205 | 0.205 | 0.19 | 0.77 |
| EMC-BAC-2 | 0.38 | 0.563 | 0.492 | 0.533 | 0.43 | 0.893 |  | 0.979 | 0.967 | 0.933 | 0.597 | 0.679 | 0.623 | 0.629 | 0.784 | 0.895 | 0.894 | 0.676 | 0.735 |
| EPLC-272H | 0.219 | 0.254 | 0.398 | 0.327 | 0.248 | 0.385 |  | 0.329 | 0.356 | 0.35 | 0.828 | 0.799 |  | 0.62 |  | 0.978 | 1.03 | 0.884 | 0.877 |
| H3255 | 0.326 | 0.39 | 0.377 | 0.347 | 0.362 | 0.481 | 0.618 |  | 0.644 | 0.585 | 0.581 | 0.534 | 0.448 | 0.378 | 0.189 | 0.3 | 0.2 | 0.207 | 0.568 |
| HARA | 0.323 | 0.542 | 0.433 | 0.431 | 0.425 | 0.592 | 0.769 | 0.596 | 0.548 | 0.459 | 0.659 | 0.803 | 0.574 | 0.584 | 0.503 | 0.676 | 0.659 | 0.411 | 0.778 |
| HCC-15 | 0.407 | 0.516 | 0.496 | 0.494 | 0.387 | 0.444 | 0.671 | 0.625 | 0.814 | 0.494 | 0.788 | 0.958 | 0.831 | 0.776 | 0.729 | 0.808 | 0.854 | 0.899 | 0.893 |
| HCC-44 | 0.166 | 0.164 | 0.138 | 0.21 | 0.208 | 1.01 | 1.05 | 0.985 | 0.895 | 0.934 | 0.667 | 0.632 | 0.597 | 0.473 | 1.04 | 0.976 | 0.922 | 0.713 | 0.784 |
| HCC-78 | 0.608 | 0.872 | 0.64 | 0.609 | 0.568 | 0.75 | 0.82 | 0.655 | 0.808 | 0.642 | 0.23 |  | 0.2 | 0.175 |  | 0.803 | 0.699 | 0.385 | 0.299 |
